Source: patent publication US11524966B1 (Valo Early Discovery, Inc., priority 2017, dated 2022)

Target: T1, USP28 (His-tagged USP28-FL-mammalian) (Homo sapiens, UniProt Q96RU2)
T1 construct: Expression of USP28 (1-1077)-TEV-6*His (pTT5 vector); made in house; host or cells: Expi293f cells (pTT5 vector)
T1 sequence (Q96RU2 1-1077): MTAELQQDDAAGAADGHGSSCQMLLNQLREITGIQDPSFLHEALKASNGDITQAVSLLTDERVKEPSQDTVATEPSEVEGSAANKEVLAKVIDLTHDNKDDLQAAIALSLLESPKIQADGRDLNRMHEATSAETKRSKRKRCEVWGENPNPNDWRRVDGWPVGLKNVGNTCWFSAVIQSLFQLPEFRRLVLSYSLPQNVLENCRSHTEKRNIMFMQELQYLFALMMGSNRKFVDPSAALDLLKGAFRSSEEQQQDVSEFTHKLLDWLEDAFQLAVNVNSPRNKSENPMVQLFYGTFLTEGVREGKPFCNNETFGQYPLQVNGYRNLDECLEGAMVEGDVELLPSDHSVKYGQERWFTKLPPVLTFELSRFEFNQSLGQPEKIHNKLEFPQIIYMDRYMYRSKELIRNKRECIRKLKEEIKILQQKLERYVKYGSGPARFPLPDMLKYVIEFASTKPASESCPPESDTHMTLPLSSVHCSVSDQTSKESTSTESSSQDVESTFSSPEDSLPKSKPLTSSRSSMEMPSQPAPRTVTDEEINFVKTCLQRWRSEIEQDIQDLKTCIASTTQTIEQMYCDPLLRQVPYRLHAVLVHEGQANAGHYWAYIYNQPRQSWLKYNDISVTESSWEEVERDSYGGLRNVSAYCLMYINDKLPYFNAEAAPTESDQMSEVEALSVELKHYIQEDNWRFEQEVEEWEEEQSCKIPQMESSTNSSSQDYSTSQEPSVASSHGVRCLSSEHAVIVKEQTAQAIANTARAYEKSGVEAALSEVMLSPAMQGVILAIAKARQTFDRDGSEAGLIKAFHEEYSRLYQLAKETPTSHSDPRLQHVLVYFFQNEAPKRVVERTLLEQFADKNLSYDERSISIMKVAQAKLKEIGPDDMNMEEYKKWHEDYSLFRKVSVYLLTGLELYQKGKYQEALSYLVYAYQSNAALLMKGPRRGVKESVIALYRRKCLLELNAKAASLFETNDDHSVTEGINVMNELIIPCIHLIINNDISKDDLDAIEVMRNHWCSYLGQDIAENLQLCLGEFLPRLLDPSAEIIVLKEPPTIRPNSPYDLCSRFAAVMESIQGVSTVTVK
Experiment: Ubiquitin-Rhodamine 110 Assay for USP28 Activity, Example A-1(a)
Format: biochemical
Details: Ubiquitin-Rhodamine 110 assay, Example A-1(a); read-out: USP28 A-1(a) IC50 range
Procedure: Example A-1(a): Biochemical Assay: Ubiquitin-Rhodamine 110 Assay for USP28 Activity
The assay was performed in a final volume of 9 μL in assay buffer containing 20 mM Tris-HCl (pH 8.0, (1M Tris-HCl, pH 8.0 solution; Corning 46-031-CM)), 3 mM BME (2-Mercaptoethanol; Sigma 63689-25ML-F), 0.03% BGG (0.22 μM filtered, Sigma, G7516-25G), and 0.01% Triton X-100 (Sigma, T9284-10L). Nanoliter quantities of 10-point, 3-fold serial dilution in DMSO was pre-dispensed into 1536 assay plates (Corning, #3724BC) for a final test concentration of 25 μM to 1.3 nM, top to lowest dose, respectively. Enzyme USP28, construct His-tagged USP28-FL-mammalian, (protein expression and purification procedure described below). Concentration and incubation times were optimized for the maximal signal-to-background while maintaining initial velocity conditions at a fixed substrate concentration. The final concentration of the enzyme in the assay was 75 μM. Final substrate (Ub-Rh110; Ubiquitin-Rhodamine 110, UbiQ-126) concentration was 25 nM with [Ub-Rh110]<<Km. 3 μL of 2× enzyme was added to assay plates (pre-stamped with compound) preincubated with […] for 30 minutes and then 3 μL of 2×Ub-Rh110 was added to assay plates. Plates were incubated for 45 minutes at room temperature before addition of 3 μL of stop solution (final concentration of 10 mM citric acid (Sigma, 251275-500G)). Fluorescence was read on the Envision (Excitation at 485 nm and Emission at 535 nm; Perkin Elmer) or on the PheraSTAR (Excitation at 485 nm and Emission at 535 nm; BMG Labtech).
Procedure for the Protein Expression and Purification for Construct His-Tagged USP28-FL-Mammalian
Expression of USP28 (1-1077)-TEV-6*His (pTT5 vector) was carried out in Expi293f cells (sequence derived from uniprot ID: Q96RU2-1). Cells were re-suspended in lysis buffer B 50 mM Bicine, pH 8.0, 20 mM NaCl, 5% glycerol, 0.1% CHAPS, 5 mM β-ME, 1 mM PMSF, 1 ug/ml Leupeptin, 1 ug/ml Pepstatin) and lysed by sonication. Insoluble material was removed by centrifugation and the supernatant was loaded onto a Ni-NTA column (GE Healthcare) equilibrated with Ni Buffer A (50 mM Bicine, pH 8.0, 20 mM NaCl, 5% glycerol, 0.1% CHAPS, 5 mM β-ME.) and washed with Ni Buffer A+20 mM imidazole until A280 reached baseline. The protein was eluted with Ni Buffer B (50 mM Bicine, pH 8.0, 20 mM NaCl, 5% glycerol, 0.1% CHAPS, 5 mM β-ME, 300 mM imidazole.). The protein was further purified using a Superdex™ 200 10/300 GL column (GE Healthcare) equilibrated with 50 mM Bicine, pH 8.0, 20 mM NaCl, 5% glycerol, 0.1% CHAPS, 5 mM β-ME. The protein was concentrated to 2.5 mg ml^−1, flash-frozen in liquid N2 and stored at −80° C.
For assay formats Example A-1(a), A-1(b), and A-2, data were reported as percent inhibition compared with control wells based on the following equation: % inh=1−((FLU−AveLow)/(AveHigh−AveLow)) where FLU=measured Fluorescence, AveLow=average Fluorescence of no enzyme control (n=16), and AveHigh=average Fluorescence of DMSO control (n=16). IC50 values were determined by curve fitting of the standard 4 parameter logistic fitting algorithm included in the Activity Base software package: IDBS XE Designer Model 205. Data is fitted using the Levenburg Marquardt algorithm.

| Structure (SMILES) | IC50 |
| --- | --- |
| Cc1ccc2c(N)c(C(=O)N[C@H]3CCc4nc(N5C[C@@H](N)[C@H](C(F)F)C5)ncc4C3)sc2n1 [Example 381, 3-amino-N-[(6S)-2-[(3S,4R)-3-amino-4-(difluoromethyl)pyrrolidin-1-yl]-5,6,7,8-tetrahydroquinazolin-6-yl]-6-methylthieno[2,3-b]pyridine-2-carboxamide] | 200 to 2000 nM |
| Cc1ccc2c(N)c(C(=O)N[C@@H]3CCc4nc(N5C[C@@H](N)[C@H](C(F)F)C5)ncc4C3)sc2n1 [Example 382, 3-amino-N-[(6R)-2-[(3S,4R)-3-amino-4-(difluoromethyl)pyrrolidin-1-yl]-5,6,7,8-tetrahydroquinazolin-6-yl]-6-methylthieno[2,3-b]pyridine-2-carboxamide] | 200 to 2000 nM |
| Cc1ccc2c(N)c(C(=O)N[C@@H]3CCc4nc(N5C[C@H](C(F)F)[C@@H](N)C5)ncc4C3)sc2n1 [Example 383, 3-amino-N-[(6R)-2-[(3R,4S)-3-amino-4-(difluoromethyl)pyrrolidin-1-yl]-5,6,7,8-tetrahydroquinazolin-6-yl]-6-methylthieno[2,3-b]pyridine-2-carboxamide] | > 2000 nM |
| Cc1ccc2c(N)c(C(=O)N[C@H]3CCc4nc(N5C[C@H](CF)[C@@H](N)C5)ccc4C3)sc2n1 [Example 384, 3-amino-N-[(6S)-2-[(3R,4S)-3-amino-4-(fluoromethyl)pyrrolidin-1-yl]-5,6,7,8-tetrahydroquinolin-6-yl]-6-methylthieno[2,3-b]pyridine-2-carboxamide] | 50 to 200 nM |
| Cc1ccc2c(N)c(C(=O)N[C@H]3CCc4nc(N5C[C@@H](CF)[C@H](N)C5)ccc4C3)sc2n1 [Example 385, 3-amino-N-[(6S)-2-[(3S,4R)-3-amino-4-(fluoromethyl)pyrrolidin-1-yl]-5,6,7,8-tetrahydroquinolin-6-yl]-6-methylthieno[2,3-b]pyridine-2-carboxamide] | 50 to 200 nM |
| Cc1ccc2c(N)c(C(=O)N[C@H]3CCc4nc(N5CC[C@](N)(CO)C5)ccc4C3)sc2n1 [Example 386, 3-amino-N-[(6S)-2-[(3R)-3-amino-3-(hydroxymethyl)pyrrolidin-1-yl]-5,6,7,8-tetrahydroquinolin-6-yl]-6-methylthieno[2,3-b]pyridine-2-carboxamide] | 50 to 200 nM |
| Cc1ccc2c(N)c(C(=O)N[C@H]3CCc4nc(N5CC[C@@](N)(CO)C5)ccc4C3)sc2n1 [Example 387, 3-amino-N-[(6S)-2-[(3S)-3-amino-3-(hydroxymethyl)pyrrolidin-1-yl]-5,6,7,8-tetrahydroquinolin-6-yl]-6-methylthieno[2,3-b]pyridine-2-carboxamide] | 50 to 200 nM |
| COC[C@@]1(N)CCN(c2ccc3c(n2)CC[C@H](NC(=O)c2sc4nc(C)ccc4c2N)C3)C1 [Example 388, 3-amino-N-[(6S)-2-[(3R)-3-amino-3-(methoxymethyl)pyrrolidin-1-yl]-5,6,7,8-tetrahydroquinolin-6-yl]-6-methylthieno[2,3-b]pyridine-2-carboxamide] | 50 to 200 nM |
| COC[C@]1(N)CCN(c2ccc3c(n2)CC[C@H](NC(=O)c2sc4nc(C)ccc4c2N)C3)C1 [Example 389, 3-amino-N-[(6S)-2-[(3S)-3-amino-3-(methoxymethyl)pyrrolidin-1-yl]-5,6,7,8-tetrahydroquinolin-6-yl]-6-methylthieno[2,3-b]pyridine-2-carboxamide] | 50 to 200 nM |
| Cc1ccc2c(N)c(C(=O)N[C@H]3CCc4nc(N5C[C@@H]6COC[C@]6(N)C5)ccc4C3)sc2n1 [Example 394, N-[(6S)-2-[(3aR,6aS)-3a-amino-hexahydro-1H-furo[3,4-c]pyrrol-5-yl]-5,6,7,8-tetrahydroquinolin-6-yl]-3-amino-6-methylthieno[2,3-b]pyridine-2-carboxamide] | 50 to 200 nM |
| Cc1ccc2c(N)c(C(=O)N[C@H]3CCc4nc(N5C[C@H]6COC[C@@]6(N)C5)ccc4C3)sc2n1 [Example 395, N-[(6S)-2-[(3aS,6aR)-3a-amino-hexahydro-1H-furo[3,4-c]pyrrol-5-yl]-5,6,7,8-tetrahydroquinolin-6-yl]-3-amino-6-methylthieno[2,3-b]pyridine-2-carboxamide] | 50 to 200 nM |
| Cc1ccc2c(N)c(C(=O)N[C@H]3CCc4nc(N5C[C@H]6COC[C@@H](C5)[C@H]6N)ccc4C3)sc2n1 [Example 396, 3-amino-6-methyl-N-[(6S)-2-[(1R,5S,9r)-9-amino-3-oxa-7-azabicyclo[3.3.1]nonan-7-yl]-5,6,7,8-tetrahydroquinolin-6-yl]thieno[2,3-b]pyridine-2-carboxamide] | 50 to 200 nM |
| Cc1ccc2c(N)c(C(=O)N[C@H]3CCc4nc(N5C[C@H]6COC[C@@H](C5)[C@@H]6N)ccc4C3)sc2n1 [Example 397, 3-amino-6-methyl-N-[(6S)-2-[(1R,5S,9s)-9-amino-3-oxa-7-azabicyclo[3.3.1]nonan-7-yl]-5,6,7,8-tetrahydroquinolin-6-yl]thieno[2,3-b]pyridine-2-carboxamide] | 50 to 200 nM |
| Cc1ccc2c(N)c(C(=O)N[C@H]3CCc4nc(N5CC6(C[C@@H](N)CO6)C5)ccc4C3)sc2n1 [Example 398, 3-amino-N-[(6S)-2-[(7R)-7-amino-5-oxa-2-azaspiro[3.4]octan-2-yl]-5,6,7,8-tetrahydroquinolin-6-yl]-6-methylthieno[2,3-b]pyridine-2-carboxamide] | 50 to 200 nM |
| Cc1ccc2c(N)c(C(=O)N[C@H]3CCc4nc(N5CC6(C[C@H](N)CO6)C5)ccc4C3)sc2n1 [Example 399, 3-amino-N-[(6S)-2-[(7S)-7-amino-5-oxa-2-azaspiro[3.4]octan-2-yl]-5,6,7,8-tetrahydroquinolin-6-yl]-6-methylthieno[2,3-b]pyridine-2-carboxamide] | 1 to 50 nM |
| CCn1ccc2cc(C(=O)N[C@H]3CCc4nc(N5C[C@H](NC)[C@@H](OC)C5)ccc4C3)cnc21 [Example 402, 1-ethyl-N-[(6S)-2-[(3S,4S)-3-methoxy-4-(methylamino)pyrrolidin-1-yl]-5,6,7,8-tetrahydroquinolin-6-yl]-1H-pyrrolo[2,3-b]pyridine-5-carboxamide] | 200 to 2000 nM |
